Results published in patent publication US20220119446A1, “BIOMARKERS AND TREATMENT OF NEURONAL INJURY AND NEURODEGENERATION” (Board of Supervisons of Louisiana State University and …, priority 2018, published 2022).
“Also recorded” adds a separate entry of the source. * marks the point of attachment. Boc = CC(C)(C)OC(=O)*

How the values were obtained:
β-catenin = assay: TOP Flash/FOP flash luciferase reporter in hpRPE cells; type: cell-based, human; settings: hpRPE cells undergoing UOS+/−NPD1
Excerpt: We tested whether or not Wnt5a activates […] using TOP Flash/FOP flash reporter system in hpRPE cells undergoing UOS+/−NPD1 (FIG. 1g).
(§1) Except TOP/FOP flash, the Luciferase activity can be standardized using a construct expressing GFP constitutively under CMV virus promoter. To assess luciferase activity, cell lysates can be obtained using Passive Lysis Buffer (Promega, Madison, Wis.) and mixed with a luciferase assay reagent (Promegam Madison, Wis.). Chemiluminescence produced by luciferase and fluorescence from GFP can be detected using Appliscan 2.3. Data can be analyzed using SkanIt 2.3 (Thermo Fisher Scientific, Waltham, Mass.).
(§2) Except TOP/FOP flash, the Luciferase activity was standardized using a construct expressing GFP constitutively under CMV virus promoter. To assess luciferase activity, cell lysates were obtained using Passive Lysis Buffer (Promega) and mixed with a luciferase assay reagent (Promega). Chemiluminescence produced by luciferase and fluorescence from GFP was detected using Appliscan 2.3. Data were analyzed using SkanIt 2.3 (Thermo Fisher Scientific).

COX-2 promoter = COX-2 promoter luciferase reporter assay; type: cell-based, human; settings: for COX-2 promoter activity (luciferase): hRPE cells, +/− 100 nM and 200 nM NPD1
Excerpt: as §1
A, Design of luciferase reporter assay performed with COX-2 promoter construct. UOS was induced by the addition of 10 ng/ml TNFα and 600 μM H2O2 in ARPE-19 cells. The concentrations of Wnt5a used was 50 ng/ml. Cells were co-transfected with the constructs driving the expression of luciferase and a plasmid that constitutively expressed green fluorescent protein for standardization. Luciferase activity is denoted in luciferase activity units (LUC) and standardized using GFP fluorescent (GFP). B, Wnt5a and IL-1β effect time course on COX-2 promoter activity. […] Luciferase activity (LUC) was measured in ARPE-19 cells in the presence of 50 ng/ml Wnt5a or 20 ng/ml IL1-β. […] Luciferase activity measured in cells incubated with 50 ng/ml Wnt5a in the presence or absence of 100 nM (+) and 200 nM (++) NPD1.

FZD5 = assay: Western blot of FZD5 protein in hpRPE cells under UOS; type: cell-based, human
Protocol: The pellet was re-suspended and denatured in 100 μl of 2× Laemmli sample buffer (Bio-Rad Laboratories) at 95° C. for 5 min. MCAo brain tissue and cell samples were homogenized using RIPA (Thermo Fisher Scientific) buffer supplemented with protease and phosphatase inhibitor cocktails (Sigma). The amount of 30 μg of total protein was loaded in NuPAGE® Novex® 4-12% Bis-Tris precast gels (Life Technologies Corporation) or Mini-PROTEAN TGX Stain free gels 4-15% and ran at constant 120V for 1 hour and 20 min or 250 V for 40 min respectively. Proteins were transferred to μm Nitrocellulose or LF-PVDF membrane using Bio-Rad Trans-Blot® Turbo™ System (Bio-Rad Laboratories). ECL™ Plex Fluorescent Rainbow Markers (GE Healthcare) were used as the ladder for protein's molecular weight. Membranes were blocked using 5% non-fat dry milk (Bio-Rad Laboratories) in TBS with 1% Tween® 20 (TBST-10X) for 1 hour and incubated overnight with primary antibodies. Anti-mouse or anti-rabbit secondary antibodies conjugated with Cy3 or Cy5 were used to visualize the protein of interest. Immunoblots were documented using LAS 4000 imaging system (GE Healthcare Life Sciences) or ChemiDoc MP Imaging System (BioRad Laboratories). A time course exposition was produced in each case to prevent quantification of saturated images. Densitometry data was obtained using ImageQuant™ TL software and XRS Blot Chemi Software (BioRad Laboratories).

NF-κB/p65 = NF-κB/p65 luciferase reporter assay in hpRPE cells; type: cell-based, human
Protocol: We asked if Wnt5a activates inflammatory signaling to enhance apoptosis mediated by UOS by assessing COX-2 promoter activation (FIG. 10). […] To compare Wnt5a effects with other cytokines that enhance COX-2 expression, Interleukin-1β (IL-1β) activity was measured. […] To determine if Wnt5a activates NF-κB, hpRPE were transfected with a construct that encompassed three p65 high-affinity binding sites in tandem, driving the expression of the luciferase reporter gene (FIG. 1G). […] To assess whether or not FDZ5 and ROR2 were involved in NF-κB activation by Wnt5a, cells were co-transfected with siRNAs targeting the two receptors (FIG. 11).
as §1, §2

Wnt5a = assay: Transient MCAo: Wnt5a protein in plasma; type: in vivo; settings: rat MCAo, days 1, 3 and 7 post-surgery
Protocol: In various exemplary embodiments, docosahexaenoic acid (DHA; 5 mg/kg, Cayman, Ann Arbor, Mich., USA), Box5 (1 mg/kg, Millipore-Sigma, Burlington, Mass.) or vehicle (0.9% saline) is administered intravenously into the femoral vein at a constant rate over 3 min using an infusion pump at 3 h after onset of MCAo. In embodiments, for western-blot study, rats are sacrificed on days 1, 3, or 7; for real-time PCR study, rats are sacrificed on days 1, 2, or 3.
A, Timeline of MCAo. DHA, Box5 or saline were administered at 1 h after 2 h of MCAo and rats were sacrificed on days 1, 2, 3 or 7. B, Effect of DHA on neurological recovery. Total score (normal score=0, maximal deficit=12), tactile placing (dorsal, lateral, proprioceptive reactions; normal score=0, maximal deficit=2) after MCAo. DHA or saline was administered at 1 h after 2 h of MCAo and rats sampled on days 1, 2, 3 or 7. […] C, Total neurological score at days 1, 3 and 7; D, MRI quantification at day 7 of the lesion volume depicting total, core and penumbra and; E, representative coronal sections showing T2 weighted image (T2WI), the defined core and penumbra region (red and blue, respectively) in the second column; and a 3D reconstruction of the lesion. […] J, Quantification of Wnt5a and NF-κB linked gene expression in MCAo. […] The mRNA were measured using SYBR green RT-PCR. […]

[1] = hpRPE under UOS in the presence of Wnt5a 50 ng/ml, NPD1 100 or 200 nM, Pitstop2 25 μM

Row | time of peak COX-2 promoter activity after addition (COX-2 promoter; ARPE-19 cells, 50 ng/ml Wnt5a) | COX-2 promoter activation (luciferase) (COX-2 promoter; ARPE-19 cells, 50 ng/ml Wnt5a or 20 ng/ml IL1-β) | Molecule | β-catenin activity (luciferase) (β-catenin) | COX-2 promoter activity (luciferase) (COX-2 promoter; 50 ng/ml Wnt5a) | FZD5 protein abundance (FZD5; 100 nM NPD1, Wnt5a present) | FZD5 protein abundance (FZD5; 100 nM NPD1, absence of Wnt5a) | NF-κB/p65 activation (luciferase) (NF-κB/p65; [1]) | NF-κB activation in cells co-transfected with ROR2 and FZD5 siRNAs (NF-κB/p65; hpRPE under UOS, double knockdown) | NF-κB/p65 activation (luciferase) (NF-κB/p65; hpRPE under UOS, no Wnt5a added) | FZD5 protein abundance (FZD5; Box5, even in the presence of Wnt5a 50 ng/ml) | plasma (blood) Wnt5a protein (Wnt5a)
1 |  |  | CC/C=C\C[C@H](O)\C=C/C=C/C=C/[C@H](O)C/C=C\C/C=C\CCC(=O)O [NPD1, 10R,17S-dihydroxy-docosa-4Z,7Z,11E,13E,15Z,19Z-hexaenoic acid] | not significantly altered | down by half; also recorded: prevents Wnt5a-induced activation of COX-2 promoter | steep decrease in the receptor content | no differences in the FZD5 receptor were observed | reduced luciferase activity; also recorded: affects its activation when Wnt5a is added | not affected | did not affect NF-κB/p65; also recorded: does not prevent activation of NF-κB triggered by UOS; also recorded: did not affect NFkB/p65 |  | 
2 |  |  | t-Boc-NH-Met-Asp-Gly-Cys-Glu-Leu-CO2H (Boc-MDGCEL-OH) [Box5] |  |  |  |  |  |  |  | decreased FZD5 abundance by half of the level | failed to reduce the plasma Wnt5a content; also recorded: did not affect the levels of Wnt5a; also recorded: did not affect Wnt5a abundance
3 | 4 h | induced COX-2 promoter activation | Wnt5a: Recombinant Human/Mouse Wnt-5a Protein, CHO-derived (Gln38-Lys380), R&D systems 645-WN (protein) QVVIEANSWWSLGMNNPVQMSEVYIIGAQPLCSQLAGLSQGQKKLCHLYQDHMQYIGEGAKTGIKECQYQFRHRRWNCSTVDNTSVFGRVMQIGSRETAFTYAVSAAGVVNAMSRACREGELSTCGCSRAARPKDLPRDWLWGGCGDNIDYGYRFAKEFVDARERERIHAKGSYESARILMNLHNNEAGRRTVYNLADVACKCHGVSGSCSLKTCWLQLADFRKVGDALKEKYDSAAAMRLNSRGKLVQVNSRFNSPTTQDLVYIDPSPDYCVRNESTGSLGTQGRLCNKTSEGMDGCELMCCGRGYDQFKTVQTERCHCKFHWCCYVKCKKCTEIVDQFVCK | did not affect β-catenin; also recorded: does not affect activation of β-catenin | increased COX-2 activation |  |  | heightens NF-κB activation; also recorded: heightened NFkB activation |  |  |  | 
